Patent US10512264B2, “Herbicidal mixtures” (Syngenta Participations AG, priority 2015, dated 2019)
Where “and” joins values, the source holds several entries; their conditions need not be identical. Equal entries are not always repeated.

Assays:
Format in all cases: in vivo
Conditions in all cases: 21 days after application
[1] = test system: Euphorbia heterophylla (EPHHL); experiment: Herbicidal action, pre-emergence glasshouse test, Euphorbia heterophylla
Description: (§1) Seeds of a variety of test species were sown in standard soil in pots. After cultivation for one day (pre-emergence) under controlled conditions in a glasshouse (at 24/18° C., at day/night; 16 hours light; 65% humidity), the plants were sprayed with an aqueous spray solution derived from the formulation of the technical active ingredient dissolved in acetone plus formulation A containing 10.56 wt % Emulsogen EL, 42.22 wt % N-MethylPyrrolidon, 2.22 wt % DPG-Monoethyl ether at a 1:20 ratio (technical active ingredient:formulation A). To achieve the mixture treatments, the appropriate concentration of the mixture partner (commercial formulation) was added to the solution in order to achieve the desired experimental compound:mixture partner ratio).
(§2) After application, the test plants were grown in a glasshouse under controlled conditions (at 24/18° C. day/night; 16 hours light; 65% humidity) and watered twice daily. Herbicidal activity was evaluated 21 days after application in a 100-0 scale (100=total damage to plant; 0=no damage to plant).

Ipomea purpurea (PHBPU) = experiment: Herbicidal action, pre-emergence glasshouse test, Ipomea purpurea
Description: as §1, §2

[2] = test system: Ambrosia artimisifolia (AMBEL); experiment: Herbicidal action, pre-emergence glasshouse test, Ambrosia artimisifolia
Description: as §1, §2

[3] = test system: Digitaria sanguinalis (DIGSA); experiment: Herbicidal action, pre-emergence glasshouse test, Digitaria sanguinalis
Description: as §1, §2

Setaria fabarii (SETFA) = experiment: Herbicidal action, pre-emergence glasshouse test, Setaria fabarii
Description: as §1, §2

Bidens pilosa (BIDPI) = experiment: Herbicidal action, pre-emergence glasshouse test, Bidens pilosa
Description: as §1, §2

| Compound | Activity (% of untreated) Observed ([1]; applied alone at 100 g/ha) | Activity (% of untreated) Observed ([1]; applied alone at 250 g/ha) | Activity (% of untreated) Observed (Ipomea purpurea (PHBPU); applied alone at 100 g/ha) | Activity (% of untreated) Observed (Ipomea purpurea (PHBPU); applied alone at 250 g/ha) | Activity (% of untreated) Observed ([2]; applied alone at 100 g/ha) | Activity (% of untreated) Observed ([2]; applied alone at 250 g/ha) | Activity (% of untreated) Observed ([3]; alone 100 g/ha) | Activity (% of untreated) Observed ([3]; alone 250 g/ha) | Activity (% of untreated) Observed (Setaria fabarii (SETFA); alone 100 g/ha) | Activity (% of untreated) Observed (Setaria fabarii (SETFA); alone 250 g/ha) | Activity (% of untreated) Observed (Ipomea purpurea (PHBPU); applied alone at 25 g/ha) | Activity (% of untreated) Observed (Ipomea purpurea (PHBPU); applied alone at 50 g/ha) | Activity (% of untreated) Observed ([2]; applied alone at 10 g/ha) | Activity (% of untreated) Observed ([2]; applied alone at 50 g/ha) | Activity (% of untreated) Observed ([3]; alone 10 g/ha) | Activity (% of untreated) Observed ([3]; alone 50 g/ha) | Activity (% of untreated) Observed (Setaria fabarii (SETFA); alone 10 g/ha) | Activity (% of untreated) Observed (Setaria fabarii (SETFA); alone 50 g/ha) | Activity (% of untreated) Observed (Bidens pilosa (BIDPI); applied alone at 10 g/ha) | Activity (% of untreated) Observed (Bidens pilosa (BIDPI); applied alone at 25 g/ha) | further results |
| --- | --- | --- | --- | --- | --- | --- | --- | --- | --- | --- | --- | --- | --- | --- | --- | --- | --- | --- | --- | --- | --- |
| COC1=C(C)C(O)N(c2cc(C(C)(C)C)ncn2)C1=O (stereo not drawn) [Compound 1.1] | 12.5 % of untreated | 70 % of untreated | 0 % of untreated | 5 % of untreated | 37.5 % of untreated | 85 % of untreated | 0 % of untreated | 65 % of untreated | 0 % of untreated | 70 % of untreated |  |  |  |  |  |  |  |  |  |  |  |
| COC1=C(C)C(O)N(c2cc(C(C)(C)C)on2)C1=O (stereo not drawn) [Compound 1.2] | 10 % of untreated | 80 % of untreated | 2.5 % of untreated | 35 % of untreated | 42.5 % of untreated | 92.5 % of untreated | 0 % of untreated | 5 % of untreated | 0 % of untreated | 72.5 % of untreated |  |  |  |  |  |  |  |  |  |  | Activity (% of untreated) Observed (Bidens pilosa (BIDPI); applied alone at 100 g/ha): 65 % of untreated; Activity (% of untreated) Observed (Bidens pilosa (BIDPI); applied alone at 250 g/ha): 85 % of untreated |
| CC1=C(Cl)C(=O)N(c2cc(C(C)(C)C)on2)C1O (stereo not drawn) [Compound 1.3] |  | 87.5 % of untreated |  | 85 % of untreated and 72.5 % of untreated |  | 86 % of untreated and 99 % of untreated |  | 100 % of untreated |  |  |  |  |  |  |  |  |  |  |  |  | Activity (% of untreated) Observed ([1]; applied alone at 31.25 g/ha): 5 % of untreated; Activity (% of untreated) Observed ([1]; applied alone at 62.5 g/ha): 15 % of untreated; Activity (% of untreated) Observed ([1]; applied alone at 125 g/ha): 35 % of untreated; Activity (% of untreated) Observed ([1]; applied alone at 500 g/ha): 100 % of untreated; Activity (% of untreated) Observed (Ipomea purpurea (PHBPU); applied alone at 31.25 g/ha): 67.5 % of untreated; Activity (% of untreated) Observed (Ipomea purpurea (PHBPU); applied alone at 62.5 g/ha): 97.5 % of untreated; Activity (% of untreated) Observed (Ipomea purpurea (PHBPU); applied alone at 125 g/ha): 40 % of untreated and 50 % of untreated; Activity (% of untreated) Observed (Ipomea purpurea (PHBPU); applied alone at 500 g/ha): 100 % of untreated and 90 % of untreated; Activity (% of untreated) Observed ([2]; applied alone at 31.25 g/ha): 85 % of untreated; Activity (% of untreated) Observed ([2]; applied alone at 62.5 g/ha): 97 % of untreated; Activity (% of untreated) Observed ([2]; applied alone at 125 g/ha): 85 % of untreated and 98.5 % of untreated; Activity (% of untreated) Observed ([2]; applied alone at 500 g/ha): 98.5 % of untreated and 99 % of untreated; Activity (% of untreated) Observed ([3]; alone 31.25 g/ha): 0 % of untreated; Activity (% of untreated) Observed ([3]; alone 62.5 g/ha): 65 % of untreated; Activity (% of untreated) Observed ([3]; alone 125 g/ha): 99 % of untreated; Activity (% of untreated) Observed ([3]; alone 500 g/ha): 99.5 % of untreated and 99 % of untreated; Activity (% of untreated) Observed (Setaria fabarii (SETFA); alone 31.25 g/ha): 90 % of untreated; Activity (% of untreated) Observed (Setaria fabarii (SETFA); alone 62.5 g/ha): 100 % of untreated |
| CS(=O)(=O)c1ccc(C(=O)C2C(=O)CCCC2=O)c([N+](=O)[O-])c1 [Mesotrione, reference compound] |  |  | 50 % of untreated |  | 25 % of untreated |  | 0 % of untreated |  | 57.5 % of untreated |  | 0 % of untreated | 0 % of untreated | 7.5 % of untreated | 12.5 % of untreated | 45 % of untreated | 5 % of untreated | 0 % of untreated | 35 % of untreated | 10 % of untreated | 30 % of untreated |  |
| Bicyclopyrone [reference compound] | 100 % of untreated |  | 50 % of untreated |  | 25 % of untreated |  | 0 % of untreated |  | 57.5 % of untreated |  | 0 % of untreated | 0 % of untreated | 70 % of untreated | 12.5 % of untreated | 87.5 % of untreated | 5 % of untreated | 17.5 % of untreated | 35 % of untreated | 0 % of untreated | 5 % of untreated | Activity (% of untreated) Observed ([1]; applied alone at 10 g/ha): 32.5 % of untreated; Activity (% of untreated) Observed ([1]; applied alone at 25 g/ha): 77.5 % of untreated and 95 % of untreated; Activity (% of untreated) Observed ([1]; applied alone at 50 g/ha): 98.5 % of untreated; Activity (% of untreated) Observed (Ipomea purpurea (PHBPU); applied alone at 10 g/ha): 0 % of untreated |
| S-Metolachlor |  |  |  |  |  |  |  |  |  |  |  |  |  |  |  |  |  |  |  |  | Activity (% of untreated) Observed ([3]; alone 80 g/ha): 65 % of untreated; Activity (% of untreated) Observed ([3]; alone 200 g/ha): 100 % of untreated; Activity (% of untreated) Observed (Setaria fabarii (SETFA); alone 80 g/ha): 85 % of untreated; Activity (% of untreated) Observed (Setaria fabarii (SETFA); alone 200 g/ha): 98.5 % of untreated |
